Patent US5614533A, “Substituted pipecolinic acid derivatives as HIV protease inhibitors” (Bio-Mega/Boehringer Ingelheim Research, Inc., priority 1994, dated 1997)

What was measured:
[1] = tested on: HIV (H9/HTLV-IIIB) in C8166 cells; assay: plaque assay: inhibition of syncytia formation in HIV-infected C8166 cells; assay type: cell-based; settings: Human immunodeficiency virus 1, IIIB, 72 h, 50% inhibition of syncytia formation
Procedure, shortened: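 C8166 cells (5×10^4/well) infected with 50× TCID50 H9/HTLV-IIIB in HEPES-buffered RPMI 1640 (pH 7.2), 10% FCS, with test compound in triplicate; 72 h at 37°, 5% CO2. Syncytia centers counted by phase-contrast microscopy; EC50 from percent inhibition versus serial dilutions by non-linear regression.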

[2] = biological target: T1, HIV protease (Human immunodeficiency virus type 1 group M subtype B, UniProt P04585); assay: Recombinant HIV Protease HPLC Assay; assay type: biochemical; settings: 37°, 30 min, pH 5.5
T1 construct: HIV protease was expressed in E. coli; made in house; host or cells: E. coli (plasmid pBRT1 prt+)
Procedure, shortened: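 Recombinant protease from E. coli (pBRT1 prt+ construct), purified and diluted 1/38 for use, cleaves the decapeptide substrate VSFNFPQITL-NH2, containing an HIV polyprotein cleavage site. Inhibition of cleavage is monitored by HPLC.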

EC50 ([1]; Table VI) | IC50 ([2]; Table VI) | EC50 ([1]; Table VII) | IC50 ([2]; Table VII) | Compound | other results
– | – | – | – | Cc1ccnc(S[C@@H]2CCN(C[C@@H](O)[C@H](Cc3ccccc3)NC(=O)[C@@H](NC(=O)c3ccc4ccccc4n3)C(C)C)[C@H](C(=O)NC(C)(C)C)C2)n1 [Table V, entry 23, N-tert-butyl-1-{2(R)-hydroxy-4-phenyl-3(S)-{{N-(2-quinolylinylcarbonyl)valyl}amino}butyl}-4(R)-{(4-methyl-2-pyrimidinyl)thio}piperidine-2(S)-carboxamide] | EC50 ([1]; Table V): 16 nM; IC50 ([2]; Table V): 2.8 nM
– | – | – | – | CC(C)[C@H](NC(=O)c1ccc2ccccc2n1)C(=O)N[C@@H](Cc1ccccc1)[C@H](O)CN1CC[C@@H](OCc2cccnc2)C[C@H]1C(=O)NC(C)(C)C [Table V, entry 24, N-tert-butyl-1-{2(R)-hydroxy-4-phenyl-3(S)-{{N-(2-quinolylinylcarbonyl)valyl}amino}butyl}-4(R)-(3-pyridinylmethoxy)piperidine-2(S)-carboxamide] | EC50 ([1]; Table V): 53 nM; IC50 ([2]; Table V): 3.7 nM
12 nM | 3 nM | – | – | CC(C)(C)NC(=O)[C@@H]1C[C@H](Sc2ccccc2)CCN1C[C@@H](O)[C@H](Cc1ccccc1)NC(=O)[C@@H](NC(=O)c1ccc2ccccc2n1)C(C)(C)C [Table VI, entry 1, N-tert-butyl-1-{2(R)-hydroxy-4-phenyl-3(S)-{{N-(2-quinolylinylcarbonyl)tert-butylglycyl}amino}butyl}-4(R)-(phenylthio)piperidine-2(S)-carboxamide] | –
42 nM | 2.2 nM | – | – | Cc1cc(C)nc(S[C@@H]2CCN(C[C@@H](O)[C@H](Cc3ccccc3)NC(=O)[C@H](CC(N)=O)NC(=O)c3ccc4ccccc4n3)[C@H](C(=O)NC(C)(C)C)C2)n1 [Table VI, entry 2, N-tert-butyl-1-{2(R)-hydroxy-4-phenyl-3(S)-{{N-(2-quinolylinylcarbonyl)asparaginyl}amino}butyl}-4(R)-{(4,6-dimethyl-2-pyrimidinyl)}thiopiperidine-2(S)-carboxamide] | –
60 nM | 2.1 nM | – | – | CC(C)(C)NC(=O)[C@@H]1C[C@H](Sc2ncccn2)CCN1C[C@@H](O)[C@H](Cc1ccccc1)NC(=O)[C@H](CC(N)=O)NC(=O)c1ccc2ccccc2n1 [Table VI, entry 3, N-tert-butyl-1-{2(R)-hydroxy-4-phenyl-3(S)-{{N-(2-quinolylinylcarbonyl)asparaginyl}amino}butyl}-4(R)-(2-pyrimidinylthio)piperidine-2(S)-carboxamide] | –
13 nM | 3.7 nM | – | – | CNC(=O)C[C@H](NC(=O)c1ccc2ccccc2n1)C(=O)N[C@@H](Cc1ccccc1)[C@H](O)CN1CC[C@@H](Oc2ccccc2)C[C@H]1C(=O)NC(C)(C)C [Table VI, entry 4, N-tert-butyl-1-{2(R)-hydroxy-4-phenyl-3(S)-{{N-(2-quinolylinylcarbonyl)(N^4-methyl)asparaginyl}amino}butyl}-4(R)-phenoxypiperidine-2(S)-carboxamide] | –
8 nM | 2.2 nM | – | – | CC(C)(C)NC(=O)[C@@H]1C[C@H](SCc2cccnc2)CCN1C[C@@H](O)[C@H](Cc1ccccc1)NC(=O)[C@@H](NC(=O)c1ccc2ccccc2n1)C(C)(C)C [Table VI, entry 5, N-tert-butyl-1-{2(R)-hydroxy-4-phenyl-3(S)-{{N-(2-quinolylinylcarbonyl)tert-butylglycyl}amino}butyl}-4(R)-{(3-pyridinylmethyl)thio}piperidine-2(S)-carboxamide] | –
61 nM | 2.6 nM | – | – | C[C@@H](O)[C@H](NC(=O)c1ccc2ccccc2n1)C(=O)N[C@@H](Cc1ccccc1)[C@H](O)CN1CC[C@@H](S(=O)(=O)c2ccccc2)C[C@H]1C(=O)NC(C)(C)C [Table VI, entry 6, N-tert-butyl-1-{2(R)-hydroxy-4-phenyl-3(S)-{{N-(2-quinolylinylcarbonyl)threonyl}amino}butyl}-4(R)-(phenylsulfonyl)piperidine-2(S)-carboxamide] | –
29 nM | 2.1 nM | – | – | CC(C)(C)NC(=O)[C@@H]1C[C@H](S(=O)(=O)c2ccncc2)CCN1C[C@@H](O)[C@H](Cc1ccccc1)NC(=O)[C@@H](NC(=O)c1ccc2ccccc2n1)C(C)(C)C [Table VI, entry 7, N-tert-butyl-1-{2(R)-hydroxy-4-phenyl-3(S)-{{N-(2-quinolylinylcarbonyl)tert-butylglycyl}amino}butyl}-4(R)-(4-pyridinylsulfonyl)piperidine-2(S)-carboxamide] | –
44 nM | 2.9 nM | – | – | CC(C)(C)NC(=O)[C@@H]1C[C@H](S(=O)(=O)c2ccccn2)CCN1C[C@@H](O)[C@H](Cc1ccccc1)NC(=O)[C@@H](NC(=O)c1ccc2ccccc2n1)C(C)(C)C [Table VI, entry 8, N-tert-butyl-1-{2(R)-hydroxy-4-phenyl-3(S)-{{N-(2-quinolylinylcarbonyl)tert-butylglycyl}amino}butyl}-4(R)-(2-pyridinylsulfonyl)piperidine-2(S)-carboxamide] | –
– | – | 35 nM | 2.7 nM | Cc1cccc(C)c1OCC(=O)N[C@@H](Cc1ccccc1)[C@H](O)CN1CC[C@@H](SCc2cccnc2)C[C@H]1C(=O)NC(C)(C)C [Table VII, entry 1, N-tert-Butyl-1-{3(S)-{{(2,6-dimethylphenoxy)acetyl}amino}-2(R)-hydroxy-4-phenylbutyl}-4(R)-{(3-pyridinylmethyl)thio}piperidine-2(S)-carboxamide] | –
– | – | 47 nM | 3.7 nM | Cc1cc(C)c(OCC(=O)N[C@@H](Cc2ccccc2)[C@H](O)CN2CC[C@@H](Sc3ccncc3)C[C@H]2C(=O)NC(C)(C)C)c(C)c1 [Table VII, entry 2, N-tert-butyl-1-{3(S)-{{(2,4,6-trimethylphenoxy)acetyl}amino}-2(R)-hydroxy-4-phenylbutyl}-4(R)-(4-pyridinylthio)piperidine-2(S)-carboxamide] | –
– | – | 20 nM | 3.1 nM | Cc1cccc(C)c1OCC(=O)N[C@@H](Cc1ccccc1)[C@H](O)CN1CC[C@@H](Sc2ccncc2)C[C@H]1C(=O)NC(C)(C)C [Table VII, entry 4, N-tert-butyl-1-{3(S)-{{(2,6-dimethylphenoxy)acetyl}amino}-2(R)-hydroxy-4-phenylbutyl}-4(R)-(4-pyridinylthio)piperidine-2(S)-carboxamide] | –
– | – | 140 nM | 6.2 nM | Cc1ccccc1OCC(=O)N[C@@H](Cc1ccccc1)[C@H](O)CN1CC[C@@H](Sc2ccncc2)C[C@H]1C(=O)NC(C)(C)C [Table VII, entry 5, N-tert-butyl-1-{3(S)-{{(2-methylphenoxy)acetyl}amino}-2(R)-hydroxy-4-phenylbutyl}-4(R)-(4-pyridinylthio)piperidine-2(S)-carboxamide] | –
– | – | 340 nM | 5.4 nM | CC(C)(C)NC(=O)[C@@H]1C[C@H](Sc2ccncc2)CCN1C[C@@H](O)[C@H](Cc1ccccc1)NC(=O)c1ccc(Cl)cc1Cl [Table VII, entry 6, N-tert-butyl-1-{3(S)-{{(2,4-dichlorophenyl)carbonyl}amino}-2(R)-hydroxy-4-phenylbutyl}-4(R)-(4-pyridinylthio)piperidine-2(S)-carboxamide] | –
– | – | 360 nM | 9.8 nM | CC(C)(C)NC(=O)[C@@H]1C[C@H](Sc2ccncc2)CCN1C[C@@H](O)[C@H](Cc1ccccc1)NC(=O)c1cc(Cl)ccc1Cl [Table VII, entry 7, N-tert-butyl-1-{3(S)-{{(2,5-dichlorophenyl)carbonyl}amino}-2(R)-hydroxy-4-phenylbutyl}-4(R)-(4-pyridinylthio)piperidine-2(S)-carboxamide] | –
– | – | 340 nM | 14 nM | CC(C)(C)NC(=O)[C@@H]1C[C@H](Sc2ccncc2)CCN1C[C@@H](O)[C@H](Cc1ccccc1)NC(=O)c1c(F)cccc1F [Table VII, entry 8, N-tert-butyl-1-{3(S)-{{(2,6-difluorophenyl)carbonyl}amino}-2(R)-hydroxy-4-phenylbutyl}-4(R)-(4-pyridinylthio)piperidine-2(S)-carboxamide] | –
